For 20 molecules, IC50 results are on record in patent US9169243B2, “Apoptosis signal-regulating kinase inhibitors” (Gilead Sciences, Inc., priority 2013, dated 2015).

In the test the target is recombinant human ASK1 kinase (Homo sapiens (Human), UniProt Q99683). In words: TR-FRET ASK1 (Apoptosis Signal-Regulating Kinase 1) kinase assay. In kind it is biochemical. As to conditions: TR-FRET/HTRF, 4 nM ASK1, 1 μM STK3 peptide substrate, 100 μM ATP, 3 hr; average of quadruplicate determination. From the text: I. TR-FRET ASK1 (Apoptosis Signal-Regulating Kinase 1) Kinase Assay
Sequence of recombinant human ASK1 kinase (Q99683 whole entry): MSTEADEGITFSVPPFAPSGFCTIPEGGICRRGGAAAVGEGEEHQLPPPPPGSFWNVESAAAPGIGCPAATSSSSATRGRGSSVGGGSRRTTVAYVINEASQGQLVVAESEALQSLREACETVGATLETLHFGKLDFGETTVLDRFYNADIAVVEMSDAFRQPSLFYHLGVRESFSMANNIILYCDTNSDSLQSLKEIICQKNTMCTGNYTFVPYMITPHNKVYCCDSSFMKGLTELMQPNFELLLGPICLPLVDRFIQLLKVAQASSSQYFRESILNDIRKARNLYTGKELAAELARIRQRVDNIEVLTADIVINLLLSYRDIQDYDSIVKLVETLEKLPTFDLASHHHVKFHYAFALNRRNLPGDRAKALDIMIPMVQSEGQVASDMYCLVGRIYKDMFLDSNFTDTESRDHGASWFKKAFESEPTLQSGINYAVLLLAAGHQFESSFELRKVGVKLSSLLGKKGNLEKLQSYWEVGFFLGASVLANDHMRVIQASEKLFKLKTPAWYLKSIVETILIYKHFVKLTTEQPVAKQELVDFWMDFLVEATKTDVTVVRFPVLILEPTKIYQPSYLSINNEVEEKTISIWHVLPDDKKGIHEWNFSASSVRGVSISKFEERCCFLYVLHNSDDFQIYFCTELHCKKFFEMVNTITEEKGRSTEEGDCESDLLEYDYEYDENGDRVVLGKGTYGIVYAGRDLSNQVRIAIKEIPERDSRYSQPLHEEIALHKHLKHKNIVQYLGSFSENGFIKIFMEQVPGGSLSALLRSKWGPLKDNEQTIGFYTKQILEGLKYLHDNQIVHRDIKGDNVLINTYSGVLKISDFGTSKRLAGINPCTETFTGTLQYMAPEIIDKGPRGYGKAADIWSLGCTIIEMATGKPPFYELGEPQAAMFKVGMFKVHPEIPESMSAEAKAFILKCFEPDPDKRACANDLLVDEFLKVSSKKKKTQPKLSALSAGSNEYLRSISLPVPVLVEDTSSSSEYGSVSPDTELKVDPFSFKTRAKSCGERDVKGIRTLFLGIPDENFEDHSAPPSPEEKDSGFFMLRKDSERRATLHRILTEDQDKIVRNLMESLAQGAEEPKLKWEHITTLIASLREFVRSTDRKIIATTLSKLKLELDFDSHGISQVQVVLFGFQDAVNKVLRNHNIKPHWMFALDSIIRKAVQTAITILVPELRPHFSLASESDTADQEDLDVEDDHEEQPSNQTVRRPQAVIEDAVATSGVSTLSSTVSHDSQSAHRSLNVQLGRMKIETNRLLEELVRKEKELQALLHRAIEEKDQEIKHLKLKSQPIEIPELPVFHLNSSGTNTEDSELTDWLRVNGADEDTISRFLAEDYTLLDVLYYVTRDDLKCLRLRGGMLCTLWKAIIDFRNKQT
To evaluate the inhibitory activity of compounds of the invention against ASK1 (Apoptosis Signal-regulating Kinase 1) kinase, its activity was examined using a TR-FRET ASK1 kinase assay which determined the amount of phosphate transferred to a peptide substrate from ATP.
Dephosphorylated recombinant human ASK1 kinase was from Gilead Sciences. Small molecule kinase inhibitor staurosporine (Catalogue #S6942) and dithiothreitol (DTT, catalogue #43815-5G) were obtained from Sigma Chemicals (St. Louis, Mo.). ATP (catalogue #7724) was from Affymetrix (Santa Clara, Calif.) and test compounds were from Gilead Sciences. HTRF KinEASE™-STK S3 kit was obtained from Cisbio (Bedford, Mass.). All other reagents were of the highest grade commercially available.
The assay measures the phosphorylation level of a biotinylated peptide substrate by the ASK1 kinase using HTRF detection. This is a competitive, time-resolved fluorescence resonance energy transfer (TR-FRET) immunoassay, based on HTRF® KinEASE™-STK manual from Cisbio. Test compound, 1 μM STK3 peptide substrate, 4 nM of ASK1 kinase were incubated with 10 mM MOP buffer, pH. 7.0 containing 10 mM Mg-acetate, 0.025% NP-40, 1 mM DTT, 0.05% BSA and 1.5% glycerol for 30 minutes then 100 μM ATP was added to start the kinase reaction and incubated for 3 hr. Peptide antibody labeled with 1×Eu^3+ Cryptate buffer containing 10 mM EDTA and 125 nM Streptavidin XL665 were added to stop the reaction and phosphorylated peptide substrate was detected using Envision 2103 Multilabeled reader from PerkinElmer. The fluorescence was measured at 615 nm (Cryptate) and 665 nm (XL665) and a ratio of 665 nm/615 nm was calculated for each well. The resulting TR-FRET level (a ratio of 665 nm/615 nm) was proportional to the phosphorylation level. Under these assay conditions, the degree of phosphorylation of peptide substrate was linear with time and concentration for the enzyme. The assay system yielded consistent results with regard to Km and specific activities for the enzyme. For inhibition experiments (IC50 values), activities were performed with constant concentrations of ATP, peptide and several fixed concentrations of inhibitors. Staurosporine, the nonselective kinase inhibitor, was used as the positive control. All enzyme activity data are reported as an average of quadruplicate determination.
The IC50 values were calculated following equation: y=Range/{1+(x/IC50)^s}+Background where x and y represent the concentration of inhibitors and enzyme activity, respectively. Enzyme activity is expressed as the amount of Phosphate incorporated into substrate peptide from ATP. Range is the maximum y range (no inhibitor, DMSO control) and s is a slope factor.
Background: In TR-FRET formats the signal depends on donor and acceptor labels being close together.
Turning to `C[C@H](n1cnnc1-c1nc(NC(=O)c2cc(-n3cnc(C4CC4)c3)c(N3CC(C(F)F)C3)cn2)cs1)C(F)(F)F` [Compound 26, (S)-4-(4-cyclopropyl-1H-imidazol-1-yl)-5-(3-(difluoromethyl)azetidin-1-yl)-N-(2-(4-(1,1,1-trifluoropropan-2-yl)-4H-1,2,4-triazol-3-yl)thiazol-4-yl)picolinamide], the IC50 came out at 1.7 nM.
With `COCC1CN(c2cnc(C(=O)Nc3csc(-c4nncn4[C@@H](C)C(F)(F)F)n3)cc2-n2cnc(C3CC3)c2)C1` [Compound 23, (S)-4-(4-cyclopropyl-1H-imidazol-1-yl)-5-(3-(methoxymethyl)azetidin-1-yl)-N-(2-(4-(1,1,1-trifluoropropan-2-yl)-4H-1,2,4-triazol-3-yl)thiazol-4-yl)picolinamide] the figure was 2 nM; with `C[C@H](n1cnnc1-c1nc(NC(=O)c2cc(-n3cnc(C4CC4)c3)c(N3CCN4CCCC4C3)cn2)cs1)C(F)(F)F` (stereo partly drawn) [Compound 37, 4-(4-cyclopropyl-1H-imidazol-1-yl)-5-(hexahydropyrrolo[1,2-a]pyrazin-2(1H)-yl)-N-(2-(4-((S)-1,1,1-trifluoropropan-2-yl)-4H-1,2,4-triazol-3-yl)thiazol-4-yl)picolinamide], 1.8 nM; with `C[C@H](n1cnnc1-c1nc(NC(=O)c2cc(-n3cnc(C4CC4)c3)c(N3CCC(C(F)(F)F)CC3)cn2)cs1)C(F)(F)F` [Compound 32, (S)-4-(4-cyclopropyl-1H-imidazol-1-yl)-5-(4-(trifluoromethyl)piperidin-1-yl)-N-(2-(4-(1,1,1-trifluoropropan-2-yl)-4H-1,2,4-triazol-3-yl)thiazol-4-yl)picolinamide], 1.5 nM.
For `O=C(Nc1csc(-c2nncn2C2CC2)n1)c1cc(-n2cnc(C3CC3)c2)c(N2CCN(C3CC3)CC2)cn1` [Compound 19, 4-(4-cyclopropylimidazol-1-yl)-5-(4-cyclopropylpiperazin-1-yl)-N-[2-(4-cyclopropyl-1,2,4-triazol-3-yl)-1,3-thiazol-4-yl]pyridine-2-carboxamide], the IC50 was 2.8 nM.
With `C[C@H](n1cnnc1-c1nc(NC(=O)c2cc(-n3cnc(C4CC4)c3)c(N3CCCOCC3)cn2)cs1)C(F)(F)F` [Compound 36, (S)-4-(4-cyclopropyl-1H-imidazol-1-yl)-5-(1,4-oxazepan-4-yl)-N-(2-(4-(1,1,1-trifluoropropan-2-yl)-4H-1,2,4-triazol-3-yl)thiazol-4-yl)picolinamide], the 50% inhibitory concentration (IC50) is 1.9 nM.
With `COC1(C)CN(c2cnc(C(=O)Nc3csc(-c4nncn4[C@@H](C)C(F)(F)F)n3)cc2-n2cnc(C3CC3)c2)C1` [Compound 25, (S)-4-(4-cyclopropyl-1H-imidazol-1-yl)-5-(3-methoxy-3-methylazetidin-1-yl)-N-(2-(4-(1,1,1-trifluoropropan-2-yl)-4H-1,2,4-triazol-3-yl)thiazol-4-yl)picolinamide], the IC50 was found to be 2 nM.
As to `COC1(C)CCN(c2cnc(C(=O)Nc3csc(-c4nncn4[C@@H](C)C(F)(F)F)n3)cc2-n2cnc(C3CC3)c2)CC1` [Compound 35, (S)-4-(4-cyclopropyl-1H-imidazol-1-yl)-5-(4-methoxy-4-methylpiperidin-1-yl)-N-(2-(4-(1,1,1-trifluoropropan-2-yl)-4H-1,2,4-triazol-3-yl)thiazol-4-yl)picolinamide], the concentration for half-maximal inhibition (IC50) was determined as 2.2 nM.
In the case of `O=C(Nc1csc(-c2nncn2C2CC2)n1)c1cc(-n2cnc(C3CC3)c2)c(N2CCC3(CC2)COC3)cn1` [Compound 21, 4-(4-cyclopropylimidazol-1-yl)-N-[2-(4-cyclopropyl-1,2,4-triazol-3-yl)-1,3-thiazol-4-yl]-5-(2-oxa-7-azaspiro[3.5]nonan-7-y!)pyridine-2-carboxamide] it was 1.9 nM.
Consider `O=C(Nc1csc(-c2nncn2C2CC2)n1)c1cc(-n2cnc(C3CC3)c2)c(N2CC(N3CCOCC3)C2)cn1` [Compound 18, 4-(4-cyclopropylimidazol-1-yl)-N-[2-(4-cyclopropyl-1,2,4-triazol-3-yl)-1,3-thiazol-4-yl]-5-(3-morpholin-4-ylazetidin-1-yl)pyridine-2-carboxamide], for which the IC50 came to 2.3 nM.
For the molecule `C[C@H](n1cnnc1-c1nc(NC(=O)c2cc(-n3cnc(C4CC4)c3)c(N3CC4(CCOCC4)C3)cn2)cs1)C(F)(F)F` [Compound 45, (S)-4-(4-cyclopropyl-1H-imidazol-1-yl)-5-(7-oxa-2-azaspiro[3.5]nonan-2-yl)-N-(2-(4-(1,1,1-trifluoropropan-2-yl)-4H-1,2,4-triazol-3-yl)thiazol-4-yl)picolinamide], the concentration for half-maximal inhibition (IC50) was 2.6 nM.
Regarding `CC1(C#N)CN(c2cnc(C(=O)Nc3csc(-c4nncn4C4CC4)n3)cc2-n2cnc(C3CC3)c2)C1` [Compound 3, 5-(3-cyano-3-methylazetidin-1-yl)-4-(4-cyclopropyiimidazol-1-yl)-N-[2-(4-cyclopropyl-1,2,4-triazol-3-yl)-1,3-thiazol-4-yl]pyridine-2-carboxamide], the IC50 came to 1.9 nM.
With `O=C(Nc1csc(-c2nncn2C2CC2)n1)c1cc(-n2cnc(C3CC3)c2)c(N2CC3CC3C2)cn1` (centres unmarked) [Compound 17, 5-(3-azabicyclo[3.1.0]hexan-3-yl)-4-(4-cyclopropylimidazol-1-yl)-N-[2-(4-cyclopropyl-1,2,4-triazol-3-yl)-3,3-thiazol-4-yl]pyridine-2-carboxamide] the figure was 1.1 nM; with `COC1CCN(c2cnc(C(=O)Nc3csc(-c4nncn4C4CC4)n3)cc2-n2cnc(C3CC3)c2)C1` (centres unmarked) [Compound 6, 4-(4-cyclopropylimidazol-1-yl)-N-[2-(4-cyclopropyl-1,2,4-triazol-3-yl)-1,3-thiazol-4-yl]-5-(3-methoxypyrrolidin-1-yl)pyridine-2-carboxamide], 2.8 nM.
With `O=C(Nc1csc(-c2nncn2C2CC2)n1)c1cc(-n2cnc(C3CC3)c2)c(N2CCC(C(F)(F)F)CC2)cn1` [Compound 7, 4-(4-cyclopropylimidazol-1-yl)-N-[2-(4-cyclopropyl-1,2,4-triazol-3-yl)-1,3-thiazol-4-yl]-5-[4-(trifluoromethyl)piperidin-1-yl]pyridine-2-carboxamide] the figure was 3.2 nM; with `C[C@H](n1cnnc1-c1nc(NC(=O)c2cc(-n3cnc(C4CC4)c3)c(N3CCC(F)(F)C3)cn2)cs1)C(F)(F)F` [Compound 27, (S)-4-(4-cyclopropyl-1H-imidazol-1-yl)-5-(3,3-difluoropyrrolidin-1-yl)-N-(2-(4-(1,1,1-trifluoropropan-2-yl)-4H-1,2,4-triazol-3-yl)thiazol-4-yl)picolinamide], 2.1 nM; with `CNC(=O)C1CCN(c2cnc(C(=O)Nc3csc(-c4nncn4[C@@H](C)C(F)(F)F)n3)cc2-n2cnc(C3CC3)c2)CC1` [Compound 31, (S)-4-(4-cyclopropyl-1H-imidazol-1-yl)-5-(4-(methylcarbamoyl)piperidin-1-yl)-N-(2-(4-(1,1,1-trifluoropropan-2-yl)-4H-1,2,4-triazol-3-yl)thiazol-4-yl)picolinamide], 2.3 nM.
Regarding `C[C@H](n1cnnc1-c1nc(NC(=O)c2cc(-n3cnc(C4CC4)c3)c(N3CCC(F)CC3)cn2)cs1)C(F)(F)F` [Compound 34, (S)-4-(4-cyclopropyl-1H-imidazol-1-yl)-5-(4-fluoropiperidin-1-yl)-N-(2-(4-(1,1,1-trifluoropropan-2-yl)-4H-1,2,4-triazol-3-yl)thiazol-4-yl)picolinamide], the 50% inhibitory concentration (IC50) is 1.7 nM.
In the case of `C[C@H](n1cnnc1-c1nc(NC(=O)c2cc(-n3cnc(C4CC4)c3)c(N3CCN4C(=O)OCC4C3)cn2)cs1)C(F)(F)F` (stereo partly drawn) [Compound 39, 4-(4-cyclopropyl-1H-imidazol-1-yl)-5-(3-oxotetrahydro-1H-oxazolo[3,4-a]pyrazin-7(3H)-yl)-N-(2-(4-((S)-1,1,1-trifluoropropan-2-yl)-4H-1,2,4-triazol-3-yl)thiazol-4-yl)picolinamide] it was 2.3 nM.
Consider `C[C@H](n1cnnc1-c1nc(NC(=O)c2cc(-n3cnc(C4CC4)c3)c(N3CCC4(CC3)COC4)cn2)cs1)C(F)(F)F` [Compound 44, (S)-4-(4-cyclopropyl-1H-imidazol-1-yl)-5-(2-oxa-7-azaspiro[3.5]nonan-7-yl)-N-(2-(4-(1,1,1-trifluoropropan-2-yl)-4H-1,2,4-triazol-3-yl)thiazol-4-yl)picolinamide], for which the IC50 amounted to 2.1 nM.

By IC50 is commonly meant the concentration needed to halve the response being measured.
